Data on three molecules can be found in patent US20260345729A1, “TISSUE DIFFERENTIATION FACTOR RELATED POLYPEPTIDES (TDFRPS) FOR THE TREATMENT OF MYOCARDIAL INJURY” (Therapeutics By Design, LLC, priority 2022, published 2026).

Several values for one entry are separate records, joined by “and”; a condition that tells them apart may be missing. Equal values may be shown once. Entries after “also recorded” stand apart in the source; their conditions may differ.

Data set [1] concerns Akt phosphorylation at Serine 473, neonatal rat cardiomyocytes. The data set can be described thus: Akt phosphorylation (Ser473) in cardiomyocytes starved by serum withdrawal (ischemic injury). Format: cell-based. The conditions noted are these: serum/growth supplement withdrawal; THR-123 100 μM, 60 h; p<0.01; FIG. 1. An excerpt:
Phosphorylated Akt is a marker of apoptosis. Ischemic injury leads to apoptosis.
(§1) The examples described herein valuated the effect of TDFRP's on the physiology of cardiomyocytes in vitro. Phosphorylation of cellular AKT at Ser473 is known to promote cardiomyocyte survival, function, and contractility. Cellular enzyme Caspase-3 is responsible for apoptosis via both apoptosis pathways. Chemotherapeutic agent doxorubicin […] used to treat a diverse number of cancers, but one significant side effect is decreased heart function. In cardiomyocytes, doxorubicin hinders the phosphorylation of AKT and stimulates Caspase-3. Lipopolysaccharides (LPS) are endotoxins that promote inflammation and apoptosis in cardiomyocytes.
Primary neonatal rat cardiomyocytes (Cell Applications) were cultured in medium with 10% growth supplement (Cell Applications) for 24 hours at 37 °C, 5% CO2. Cells were then starved of growth supplement for 12 hours to create ischemic injury. Controls received medium alone. Cells were incubated with culture medium alone, BMP-7 (143 nM) or SEQ ID No. 1 (100 μM) for 60 h. In FIG. 1, Akt phosphorylation at Serine 473 (Cell Signaling Technology) is depressed due to media starvation and was not affected by the addition of PBS.

For data set [2], the system named is phosphorylation of AKT, cardiomyocytes. Description: Phosphorylated AKT in doxorubicin-treated cardiomyocytes. Format: cell-based, rat. The conditions noted are these: FIG. 2.
Excerpt: as §1
(§2) Neonatal rat cardiomyocytes (CM) were pre-treated with 0.33 μM doxorubicin for 24 h, followed by treatment with BMP-7 (143 nM) or THR-123 (SEQ ID NO: 1) at 100 and 500 μM for 60 h.

Data set [3] has as its system Caspase-3, cardiomyocytes. The data set can be described thus: Doxorubicin-induced Caspase-3 activity in cardiomyocytes. Format: cell-based, rat. The conditions noted are these: for doxorubicin induced Caspase-3 activity: doxorubicin 0.33 μM 24 h (FIG. 3 legend: 333 μM), then BMP-7 143 nM or THR-123 100 and 500 μM for 60 h, p<0.05; for caspase-3 activity (effect of doxorubicin itself): 333 μM (legend) / 0.33 μM (example) doxorubicin, cardiomyocytes, FIG. 3. The protocol:
as §2
Neonatal rat cardiomyocytes (CM) were pre-treated with 0.33 μM doxorubicin for 24 h, followed by treatment with BMP-7 (143 nM) or SEQ ID No. 1 at 100 and 500 μM for 60 h. […] Caspase-3 activation is a step common to both apoptotic pathways and leads to apoptosis.

Data set [4] has as its system Caspase-3, cardiomyocytes. Description: LPS-induced Caspase-3 in cardiomyocytes. Format: cell-based, human. The conditions noted are these: 100 ng/ml LPS; BMP-7 143 nM; THR-123 4, 20, 100, 500 μM (legend: 20 μM or higher); FIG. 4.
The next data set deals with IL-6, cardiomyocytes. Description: LPS-induced IL-6 release in cardiomyocytes. Format: cell-based, human. The conditions noted are these: 100 ng/ml LPS; BMP-7 143 nM; THR-123 4, 20, 100, 500 μM; FIG. 5.
Data set [5] concerns myocardial ischemia in the rat after ligation of the left anterior descending artery. The data set can be described thus: Rat LAD ligation model: histomorphometric necrotic volume / volume at risk (ischemia/reperfusion injury). Format: in vivo. The conditions noted are these: i.v. 2 hr prior and 24, 72, 120 hr post ligation, 20 min ischemia, 7 days reperfusion, BMP-7 160 μg/kg (p=0.08), THR-123 10 mg/kg (p=0.007), FIG. 8. The protocol: For each slice of a heart, the area of the necrotic area and the area of the whole area at risk (not stained blue) are measured. The areas are summed over all slices to obtain an estimate of the necrotic volume (NV) and the volume at risk (VR). The ratio of NV/VR is a measure of the myocardial injury resulting from the period of ischemia and subsequent reperfusion injury.
The efficacy of BMP mimetic THR-123 in ameliorating the effects of myocardial ischemia was investigated in the rat after ligation of the coronary artery. The rat LAD model is used for studying the effect of treatments for ameliorating the effect of a heart attack (coronary infarct). The Left Anterior Descending artery (LAD) supplies blood to the left ventricle. Blocking blood flow through the LAD creates ischemia in a region of the left ventricle muscle (region at risk). […]
Twenty-four unmanipulated rats, sorted into three large groups by initial body weight (>300 g pre-surgery) were evaluated. […]
The effect of the LAD ligation was measured via histomorphometric analysis of heart slices where the necrotic areas (yellow) and the areas impacted by the LAD ligation (area at risk, i.e., not stained blue) were measured for each slice and summed over all slices to obtain a measure of the infarct volume and the volume at risk (FIG. 7). […]

In data set [6] the test system is paracardial inflammation in rat hearts after LAD ligation. The data set can be described thus: Paracardial inflammation / pericarditis inflammation level in rat LAD ligation model. Format: in vivo. The conditions noted are these: i.v.; BMP-7 160 μg/kg; THR-123 10 mg/kg; day 7 post ligation; FIG. 9. The protocol:
Myocardial ischemia was created by ligating the left anterior descending artery (LAD), which supplies blood to the left ventricle of the heart. In the LAD infarct model the chest and the pericardium are opened to expose the LAD. A suture is placed around the LAD and loops are added to the two ends, then the suture is tightened with an over hand knot (ligation). The ligation blockage to the LAD was maintained for 20 min to simulate a coronary infarct, then released using the two loops.
The animals were divided into three groups that were dosed with PBS, BMP-7, or THR-123 (SEQ ID NO: 1). Administrations were at 2 hr prior to ligation and at 24, 72 and 120 hr post ligation.
Twenty-four unmanipulated rats, sorted into three large groups by initial body weight (>300 g pre-surgery) were evaluated. Animals underwent surgery and were sorted into 3 treatment groups: Group 1: Vehicle (neg. control), PBS, equal volume i.v; Group 2: BMP-7, 160 μg/kg i.v.<5 ml/kg; Group 3: THR-123 (SEQ ID NO: 1), 10 mg/kg i.v.<5 ml/kg. The LAD was ligated to create a 20 min period of ischemia, then released for seven days during which reperfusion injury occurs (IR injury).
The predominance of the hearts from the PBS treated group had more severe inflammation than hearts from the BMP-7 treated and the THR-123 (SEQ ID NO: 1) treated groups (FIG. 9).

Take “THR-123: TDFRP peptide, BMP mimetic: (H) CYFDDSSNVLCKKYRS (OH)”: the “Akt Ser473 phosphorylation” value in data set [1] was “significantly increased Akt Ser473 phosphorylation; also recorded: reversed the effects of ischemia on AKT phosphorylation”. Also, the “Akt phosphorylation compared to doxorubicin alone” value in data set [2] (0.33 μM (333 nM) doxorubicin 24 h, then THR-123 at 100 and 500 μM for 60 h, p<0.01) is listed as “significantly increased cellular Akt phosphorylation; also recorded: reversed the inhibition of AKT phosphorylation in a dose dependent manner”. Besides, the “doxorubicin induced Caspase-3 activity” value in data set [3] is “inhibited doxorubicin induced Caspase-3 activity in a dose dependent manner; also recorded: significantly inhibited doxorubicin induced Caspase-3 activity; also recorded: completely reversed the apoptotic effects of doxorubicin”. Moreover, the “LPS induced Caspase-3” value in data set [4] is “reduced the level of LPS induced Caspase-3 in a concentration dependent manner; also recorded: reversed caspase-3 activity to an even greater extent”. For the same molecule, the “LPS induced IL-6” value in the data set on IL-6, cardiomyocytes was “reduces the level of LPS induced IL-6 in a concentration dependent manner; also recorded: reduced the level of IL-6 release as did THR-123 in a dose dependent manner”. The “reduction in myocardial injury / IR damage relative to PBS (necrotic volume / volume at risk)” value in data set [5] (10 mg/kg) was 85% and 84%. Besides, the “paracardial inflammation relative to PBS” value in data set [6] is reported as “reduced paracardial inflammation relative to PBS”.

With `COc1cccc2c1C(=O)c1c(O)c3c(c(O)c1C2=O)C[C@@](O)(C(=O)CO)C[C@@H]3O[C@H]1C[C@H](N)[C@H](O)[C@H](C)O1` [doxorubicin, reference compound], the “phosphorylation of AKT (effect of doxorubicin itself)” value in data set [2] (333 nM doxorubicin, serum starved cardiomyocytes) is reported as “further reduces phosphorylation of AKT”. In addition, the figures for the “caspase-3 activity (effect of doxorubicin itself)” value in data set [3] and in data set [3] (listed as Doxorubicin) were “stimulated caspase-3 activity” and “Stimulated Caspase-3”, respectively.

B1: BMP-7: bone morphogenetic proteins (BMPs) (protein, UniProt P18075 293-431, looked up)
Bone morphogenetic protein 7: STGSKQRSQNRSKTPKNQEALRMANVAENSSSDQRQACKKHELYVSFRDLGWQDWIIAPEGYAAYYCEGECAFPLNSYMNATNHAIVQTLVHFINPETVPKPCCAPTQLNAISVLYFDDSSNVILKKYRNMVVRACGCH
As to B1, the “doxorubicin induced Caspase-3 activity” value in data set [3] is listed as “significantly inhibited doxorubicin induced Caspase-3 activity; also recorded: completely reversed the apoptotic effects of doxorubicin”. The “LPS induced Caspase-3” value in data set [4] is given as “reduced the level of LPS induced Caspase-3 in a concentration dependent manner; also recorded: somewhat reversed the effect of LPS”. Moreover, the “LPS induced IL-6” value in the data set with IL-6, cardiomyocytes is given as “reduces the level of LPS induced IL-6 in a concentration dependent manner; also recorded: reduced the level of IL-6 release”. The “reduction in myocardial injury / IR damage relative to PBS (necrotic volume / volume at risk)” value in data set [5] is 51%. Moreover, the “paracardial inflammation relative to PBS” value in data set [6] is “reduced paracardial inflammation relative to PBS”.
